The record followed here is ChEMBL document CHEMBL6083192, “Discovery of 1,2,4-Triazole-3-thione Derivatives as Potent and Selective DCN1 Inhibitors for Pathological Cardiac Fibrosis and Remodeling” (J Med Chem, 2024).

Data set [1] is described as follows: Inhibition of GST-tagged DCN2 (unknown origin)/acetylated-biotin tagged UBC12 (unknown origin) protein-protein interaction assessed as inhibition constant incubated for 30 mins by HTRF assay. Background: In TR-FRET formats the signal depends on donor and acceptor labels being close together.
Data set [2] in a line: Inhibition of GST-tagged DCN3 (unknown origin)/acetylated-biotin tagged UBC12 (unknown origin) protein-protein interaction assessed as inhibition constant incubated for 30 mins by HTRF assay.
A short description of data set [3]: Inhibition of GST-tagged DCN4 (unknown origin)/acetylated-biotin tagged UBC12 (unknown origin) protein-protein interaction assessed as inhibition constant incubated for 30 mins by HTRF assay.
The nature of data set [4]: Inhibition of GST-tagged DCN5 (unknown origin)/acetylated-biotin tagged UBC12 (unknown origin) protein-protein interaction assessed as inhibition constant incubated for 30 mins by HTRF assay.
The target in data set [5] is DCN1-like protein 1 (Homo sapiens, UniProt Q96GG9). Nature of the data set: Inhibition of DCN1 (unknown origin) assessed as inhibition constant.
DCN1-like protein 1, sequence (Q96GG9 whole entry): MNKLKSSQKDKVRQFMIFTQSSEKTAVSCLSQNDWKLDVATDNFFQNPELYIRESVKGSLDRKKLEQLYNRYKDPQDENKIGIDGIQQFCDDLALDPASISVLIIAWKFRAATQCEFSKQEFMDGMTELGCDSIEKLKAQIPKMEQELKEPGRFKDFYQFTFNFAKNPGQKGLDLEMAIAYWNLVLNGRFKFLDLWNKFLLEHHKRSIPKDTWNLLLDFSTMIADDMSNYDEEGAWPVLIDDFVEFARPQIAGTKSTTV
Data set [6] deals with DCN1-like protein 1/NEDD8-conjugating enzyme Ubc12 (Homo sapiens, UniProt Q96GG9). Nature of the data set: Inhibition of GST-tagged DCN1 (unknown origin)/acetylated-biotin tagged UBC12 (unknown origin) protein-protein interaction incubated for 30 mins by HTRF assay.
DCN1-like protein 1/NEDD8-conjugating enzyme Ubc12, sequence (Q96GG9 whole entry): as above
DCN1-like protein 1/NEDD8-conjugating enzyme Ubc12, sequence (P61081 whole entry, further chain): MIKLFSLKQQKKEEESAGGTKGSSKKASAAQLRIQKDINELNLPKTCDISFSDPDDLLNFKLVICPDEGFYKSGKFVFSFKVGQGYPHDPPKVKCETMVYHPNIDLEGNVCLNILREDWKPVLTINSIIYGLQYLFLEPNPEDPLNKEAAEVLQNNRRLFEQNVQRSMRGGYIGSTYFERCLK
Data set [7] can be described thus: Hepatotoxicity in human L02 cells assessed as reduction in cell viability by MTT assay.

Turning to `C#CCSc1nc(Sc2nccs2)c(C#N)c(-c2ccc(C)cc2)n1`, the Ki (as a rule, a dissociation constant, usually derived from enzyme kinetics or from competition with a known ligand) in data set [1] stood at 66.2 nM; in data set [2], 592 nM; in data set [3], 810 nM; in data set [4], 2140 nM.
For `COc1cc(-c2nc(SCc3ccc(Cl)cc3)nc(Sc3nnnn3C)c2C#N)cc(OC)c1OC`, in that order: 18.8 nM, 385 nM, above 20000 nM and above 20000 nM.
As to `C=C(CN(C)C)C(=O)NC[C@@H](NC(=O)[C@H](Cc1nc2ccc(C(C)C)cc2s1)NC(=O)CC)C1CCCCC1`, the Ki in data set [5] was below 1 nM.
`COc1ccc(-c2n[nH]c(=S)n2CCC(=O)Nc2ccc(OC)cc2OC)cc1`: the IC50 (in general, the concentration that gives 50% inhibition) in data set [6] came out at 840 nM.
On to `O=C(CCn1c(-c2ccccc2)n[nH]c1=S)Nc1cccc(C(F)(F)F)c1`, for which the values for the IC50 in data set [6] and in data set [7] were 15.3 nM and above 100 µg/mL, respectively.
For the molecule `CC(C)(C)c1ccc(O)c(NC(=O)CCn2c(-c3ccc(Cl)cc3)n[nH]c2=S)c1`, the IC50 in data set [6] stood at 195 nM.
Regarding `O=C(CCn1c(SCC(=O)Nc2ccccc2)nnc1-c1ccc(Cl)cc1)Nc1cccc(C(F)(F)F)c1`, in data set [6], the IC50 was above 20000 nM.
`O=C(CCn1c(-c2ccc(Br)cc2)n[nH]c1=S)Nc1cccc(C(F)(F)F)c1` gave an IC50 in data set [6] of 24.9 nM.
The same measure, in the same setting: the result for `O=C(CCn1c(-c2ccc(Cl)cc2)n[nH]c1=O)Nc1cccc(C(F)(F)F)c1` reads 7580 nM; that for `O=C(CCn1c(-c2ccc(Cl)cc2)n[nH]c1=S)Nc1cccc(Br)c1`, 22.2 nM; that for `O=C(CCn1c(-c2ccc(O)cc2)n[nH]c1=S)Nc1ccccc1C(F)(F)F`, 100 nM.
Same read-out and setting: the result for `O=C(CCn1c(-c2ccc(Cl)cc2)n[nH]c1=S)Nc1ccc(Br)cc1` reads 25.6 nM.
The same measure, in the same setting: the result for `O=C(CCn1cnnc1-c1ccc(Cl)cc1)Nc1cccc(C(F)(F)F)c1` reads 15800 nM; that for `O=C(CCCn1c(-c2ccc(Cl)cc2)n[nH]c1=S)Nc1cccc(C(F)(F)F)c1`, 45.2 nM; that for `O=C(CCn1c(-c2ccccc2Cl)n[nH]c1=S)Nc1cccc(C(F)(F)F)c1`, 28.8 nM.
Take `O=C(CCn1c(-c2ccc(Cl)cc2)n[nH]c1=S)Nc1cc(-c2ccccc2)ccc1O`: the IC50 in data set [6] turned out to be 330 nM.
Same read-out and setting: the result for `Cc1cccc2[nH]c(CSc3nnc(-c4ccc(Cl)cc4)n3CCC(=O)Nc3cccc(C(F)(F)F)c3)nc12` reads 7110 nM; that for `O=C(CCn1c(-c2ccc(Cl)cc2)n[nH]c1=S)Nc1ccc(F)cc1`, 130 nM.
In the case of `O=C(CCn1c(-c2ccncc2)n[nH]c1=S)Nc1cccc(C(F)(F)F)c1`, in data set [6], the IC50 amounted to 221 nM.
Still for that read-out and setting: the result for `COc1ccc(CNC(=O)CCn2c(-c3ccc(OC)cc3)n[nH]c2=S)cc1` reads above 20000 nM; that for `COc1ccc(NC(=O)CCn2c(-c3ccc(Cl)cc3)n[nH]c2=S)cc1`, 90.9 nM.
`O=C(CSc1nnc(-c2ccc(Cl)cc2)n1CCC(=O)Nc1cccc(C(F)(F)F)c1)NC(=O)Nc1ccccc1` came in with an IC50 in data set [6] above 20000 nM.
On the same count and under the same terms, the result for `COc1ccc(-c2n[nH]c(=S)n2CCC(=O)Nc2cc(C)ccc2O)cc1` reads 1460 nM; that for `COc1cccc(NC(=O)CCn2c(-c3ccc(Cl)cc3)n[nH]c2=S)c1`, 77.6 nM; that for `O=C(CCn1c(-c2ccc(Cl)cc2)n[nH]c1=S)NCc1ccoc1`, above 20000 nM.
As to `O=C(CCn1c(-c2ccc(Cl)cc2)n[nH]c1=S)Nc1ccc(O)cc1`, the IC50 in data set [6] was above 20000 nM.
As for `Cc1ccc(O)c(NC(=O)CCn2c(-c3ccc(Cl)cc3)n[nH]c2=S)c1`, the IC50 in data set [6] is 650 nM.
`COc1ccc(-c2n[nH]c(=S)n2CCC(=O)Nc2cc(C#N)[nH]n2)cc1` showed an IC50 in data set [6] above 20000 nM.
With `O=C(CCn1c(-c2ccc([N+](=O)[O-])cc2)n[nH]c1=S)Nc1cccc(C(F)(F)F)c1`, inhibition in data set [6] was half-maximal at 46.2 nM (IC50).
Same read-out and setting: the result for `C#CCNC(=O)CCn1c(-c2ccc(OC)cc2)n[nH]c1=S` reads above 20000 nM; that for `O=C(CCn1c(-c2ccc(Cl)cc2)n[nH]c1=S)NCCc1c[nH]c2ccccc12`, 2170 nM; that for `CSc1nnc(-c2ccc(Cl)cc2)n1CCC(=O)Nc1cccc(C(F)(F)F)c1`, 1630 nM.
Same read-out and setting: the result for `COc1ccc(-c2n[nH]c(=S)n2CCC(=O)Nc2ccc(Br)cc2O)cc1` reads 209 nM; that for `N#Cc1cc(NC(=O)CCn2c(-c3ccc(Cl)cc3)n[nH]c2=S)n[nH]1`, above 20000 nM.
Still for that read-out and setting: the result for `O=C(CCn1c(-c2ccc(Cl)cc2Br)n[nH]c1=S)Nc1cccc(C(F)(F)F)c1` reads 5.41 nM.
As for `COc1ccc(CNC(=O)CCn2c(-c3ccc(Cl)cc3)n[nH]c2=S)cc1`, in data set [6], the IC50 is above 20000 nM.
In the case of `COc1ccc(-c2n[nH]c(=S)n2CCC(=O)Nc2cccc(C(F)(F)F)c2)cc1`, the figures for the IC50 in data set [6] and in data set [7] were 14.1 nM and above 100 µg/mL, respectively.
In the case of `COc1ccc(-c2n[nH]c(=S)n2CCC(=O)NCCc2c[nH]c3ccccc23)cc1`, the IC50 in data set [6] worked out at 2280 nM.
With `O=C(CCn1c(-c2ccc(O)cc2)n[nH]c1=S)Nc1ccc(C(F)(F)F)cc1`, the results for the IC50 in data set [6] and in data set [7] were 10.6 nM and above 100 µg/mL, respectively.
For `O=C(CCn1c(-c2ccc(F)cc2)n[nH]c1=S)Nc1cccc(C(F)(F)F)c1`, in that order: 18.9 nM and above 100 µg/mL.
The like results for `CC(C)c1cccc(NC(=O)CCn2c(-c3ccc(Cl)cc3)n[nH]c2=S)c1` were, in that order, 15.7 nM and above 100 µg/mL.
Take `C#CCNC(=O)CCn1c(-c2ccc(Cl)cc2)n[nH]c1=S`: in data set [6], the IC50 is above 20000 nM.
In data set [6], `COc1ccc(CSc2nnc(-c3ccc(Cl)cc3)n2CCC(=O)Nc2cccc(C(F)(F)F)c2)cc1` showed an IC50 of 4110 nM.
`Cc1ccc(NC(=O)CCn2c(-c3ccc(Cl)cc3)n[nH]c2=S)cc1` came in with an IC50 in data set [6] of 50.5 nM.
Turning to `CCCCc1ccc(NC(=O)CCn2c(-c3ccc(Cl)cc3)n[nH]c2=S)cc1`, the IC50 was 12.3 nM in data set [6] and above 100 µg/mL in data set [7].
For `O=C(CCn1c(-c2ccc(Cl)cc2)n[nH]c1=S)Nc1ccc(Cl)cc1`, in data set [6], half-maximal inhibition (IC50) required 69.4 nM.
Molecule `O=C(CCn1c(-c2ccc(O)cc2)n[nH]c1=S)NCc1cccc(C(F)(F)F)c1` gave a half-maximal inhibitory concentration (IC50) in data set [6] of 43.1 nM.
Take `O=C(CCn1c(-c2c[nH]c3ccccc23)n[nH]c1=S)Nc1cccc(C(F)(F)F)c1`: the figures for the half-inhibitory concentration (IC50) in data set [6] and in data set [7] were 9.39 nM and above 100 µg/mL, respectively.
In data set [6], `COc1ccc(-c2n[nH]c(=S)n2CCC(=O)Nc2cc(C(C)(C)C)ccc2O)cc1` displayed an IC50 of 2320 nM.
`CC(C)(C)c1ccc(NC(=O)CCn2c(-c3ccc(Cl)cc3)n[nH]c2=S)cc1`: the values for the IC50 in data set [6] and in data set [7] were 8.77 nM and above 100 µg/mL, respectively.
Regarding `CC(C)(C)c1ccc(-c2n[nH]c(=S)n2CCC(=O)Nc2cccc(C(F)(F)F)c2)cc1`, the IC50 in data set [6] worked out at 7.85 nM.
Still for that read-out and setting: the result for `O=C(Cn1c(-c2ccc(Cl)cc2)n[nH]c1=S)Nc1cccc(C(F)(F)F)c1` reads 27.4 nM.
Take `CC(C)c1ccc(NC(=O)CCn2c(-c3ccc(Cl)cc3)n[nH]c2=S)cc1`: the IC50 is 12.8 nM in data set [6] and above 100 µg/mL in data set [7].
Regarding `O=C(CCn1c(-c2ccc(Cl)cc2)n[nH]c1=S)Nc1ccccc1`, in data set [6], 545 nM corresponded to half-maximal inhibition (IC50).
In turn, `CCSc1nnc(-c2ccc(Cl)cc2)n1CCC(=O)Nc1cccc(C(F)(F)F)c1` yielded an IC50 in data set [6] of 2200 nM.
For `COc1ccc(-c2n[nH]c(=S)n2CCC(=O)NCc2ccoc2)cc1`, in data set [6], the IC50 is above 20000 nM.
On the same count and under the same terms, the result for `COc1ccc(-c2n[nH]c(=S)n2CCC(=O)Nc2cc(-c3ccccc3)ccc2O)cc1` reads 1110 nM; that for `COc1ccccc1NC(=O)CCn1c(-c2ccc(Cl)cc2)n[nH]c1=S`, 884 nM.
As to `O=C(CCn1c(-c2cccc(Cl)c2)n[nH]c1=S)Nc1cccc(C(F)(F)F)c1`, the IC50 in data set [6] is 19.9 nM; in data set [7], above 100 µg/mL.
For `Cc1ccc(-c2n[nH]c(=S)n2CCC(=O)Nc2cccc(C(F)(F)F)c2)cc1`, the IC50 in data set [6] is 9.42 nM; in data set [7], above 100 µg/mL.
